Results from patent publication US11939314B2, “Quinolin-2-one derivatives” (MERCK PATENT GMBH, priority 2016, dated 2024).

What was measured:
PDGFRalpha(V561D) = target: T1, PDGFRalpha(V561D) (Homo sapiens, UniProt P16234, V561D); assay: PDGFRalpha(V561D) assay; assay type: biochemical; conditions: recombinant human PDGFRalpha aa 550-end, 200 μM ATP, 1.4E-06 means 1.4×10^−6, read-out: Inhibition (IC50) of PDGFRα (V561D)
T1 construct: recombinant human PDGFRalpha, amino acids 550end containing the V561 D mutation; 6His (N)
T1 sequence (P16234 550-1089 V561D): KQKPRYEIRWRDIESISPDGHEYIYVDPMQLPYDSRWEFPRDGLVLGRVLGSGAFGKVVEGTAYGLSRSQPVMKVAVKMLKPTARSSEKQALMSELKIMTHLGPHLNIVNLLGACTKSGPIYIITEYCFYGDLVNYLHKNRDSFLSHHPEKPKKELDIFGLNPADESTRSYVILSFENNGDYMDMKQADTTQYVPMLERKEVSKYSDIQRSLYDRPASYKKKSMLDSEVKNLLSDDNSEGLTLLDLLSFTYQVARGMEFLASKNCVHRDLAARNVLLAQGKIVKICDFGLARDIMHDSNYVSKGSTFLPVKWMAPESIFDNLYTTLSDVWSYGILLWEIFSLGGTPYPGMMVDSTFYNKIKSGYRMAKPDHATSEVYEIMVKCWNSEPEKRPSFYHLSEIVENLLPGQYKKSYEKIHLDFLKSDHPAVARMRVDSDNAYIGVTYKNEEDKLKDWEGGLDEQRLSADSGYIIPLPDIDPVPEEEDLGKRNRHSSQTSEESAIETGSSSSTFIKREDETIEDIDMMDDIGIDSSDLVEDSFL
Protocol: (§1) PDGFRalpha(V561D) (N-terminal 6His-tagged, recombinant human PDGFRalpha, amino acids 550end containing the V561 D mutation) is incubated with 8 mM MOPS pH 7.0, 0.2 mM EDTA, 250 μM GGMEDIYEFMGGKKK, 10 mM MgAcetate and [gamma-33P-ATP] (specific activity approx. 500 cpm/pmol, concentration 200 μM). The reaction is initiated by the addition of the MgATP mix. After incubation for 40 minutes at room temperature, the reaction is stopped by the addition of 3% phosphoric acid solution. 10 μL of the reaction is then spotted onto a P30 filtermat and washed three times for 5 minutes in 75 mM phosphoric acid and once in methanol prior to drying and scintillation counting.

c-Kit(V654A) = target: T2, c-Kit(V654A) (Homo sapiens, UniProt P10721, V654A); assay: c-Kit(V654A) assay; assay type: biochemical; conditions: recombinant human c-Kit aa 544-end, 200 μM ATP, 1.4E-06 means 1.4×10^−6, read-out: Inhibition (IC50) of c-KIT (V654A)
T2 construct: amino acids 544-end containing the V654A mutation; GST (N)
T2 sequence (P10721 544-976 V654A): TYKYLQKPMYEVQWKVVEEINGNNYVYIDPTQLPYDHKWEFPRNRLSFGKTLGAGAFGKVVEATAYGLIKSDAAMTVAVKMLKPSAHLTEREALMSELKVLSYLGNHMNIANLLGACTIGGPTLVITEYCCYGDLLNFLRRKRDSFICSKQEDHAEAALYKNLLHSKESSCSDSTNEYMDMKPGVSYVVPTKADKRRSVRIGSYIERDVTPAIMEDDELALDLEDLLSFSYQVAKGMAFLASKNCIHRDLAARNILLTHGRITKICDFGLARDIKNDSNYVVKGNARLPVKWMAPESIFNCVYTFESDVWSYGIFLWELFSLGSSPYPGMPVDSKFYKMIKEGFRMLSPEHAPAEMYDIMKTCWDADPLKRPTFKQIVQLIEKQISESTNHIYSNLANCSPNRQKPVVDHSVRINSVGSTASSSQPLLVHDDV
Protocol: as §1, with “c-Kit(V654A)” for “PDGFRalpha(V561D)”, “GST-tagged,” for “6His-tagged,”, “c-Kit,” for “PDGFRalpha,”, “544-end” for “550end”, “V654A” for “V561 D”

SMILES | IC50 (PDGFRalpha(V561D)) [nM] | IC50 (c-Kit(V654A)) [nM]
COCC1CCCN1C(=O)c1ccc(-n2cc(-c3cc4cc(F)ccc4[nH]c3=O)nn2)cc1 (stereo in doubt) [A198, 6-fluoro-3-{1-[4-((R)-2-methoxymethyl-pyrrolidine-1-carbonyl)-phenyl]-1H-[1,2,3]triazol-4-yl}-1H-quinolin-2-one] | 200 | 30
NC1CCN(C(=O)c2ccc(-n3cc(-c4cc5cc(F)ccc5[nH]c4=O)nn3)cc2)C1 (stereo in doubt) [A306, 3-{1-[4-((S)-3-amino-pyrrolidine-1-carbonyl)-phenyl]-1H-[1,2,3]triazol-4-yl}-6-fluoro-1H-quinolin-2-one] | 240 | 45
CO[C@H]1CC[C@@H](Oc2ccc(-n3cc(-c4cc5cc(F)ccc5[nH]c4=O)nn3)cc2)C1 (stereo in doubt) [A355, 6-Fluoro-3-{1-[4-((trans)-3-methoxy-cyclopentyloxy)-phenyl]-1H-[1,2,3]triazol-4-yl}-1H-quinolin-2-one] | 1600 | 89
CO[C@@H]1CC[C@H](Oc2ccc(-n3cc(-c4cc5cc(Cl)ccc5[nH]c4=O)nn3)cc2)C1 (stereo in doubt) [A356, 6-chloro-3-{1-[4-((1S,3R)-3-methoxy-cyclopentyloxy)-phenyl]-1H-[1,2,3]triazol-4-yl}-1H-quinolin-2-one] | 150 | 96
COCCNC(=O)c1ccc(-n2cc(-c3cc4cccnc4[nH]c3=O)nn2)cc1 [A9, N-(2-methoxy-ethyl)-4-[4-(2-oxo-1,2-dihydro-[1,8]naphthyridin-3-yl)-[1,2,3]triazol-1-yl]-benzamide] | 230 | 760
COc1ccc(-n2cc(-c3cc4ccccc4[nH]c3=O)nn2)cc1 [A10, 3-[1-(4-methoxy-phenyl)-1H-[1,2,3]triazol-4-yl]-1H-quinolin-2-one] | 32 | 82
O=c1[nH]c2ccccc2cc1-c1cn(-c2ccc(F)cc2)nn1 [A12, 3-[1-(4-fluoro-phenyl)-1H-[1,2,3]triazol-4-yl]-1H-quinolin-2-one] | 63 | 69
O=c1[nH]c2ccccc2cc1-c1cn(-c2ccccc2F)nn1 [A13, 3-[1-(2-fluoro-phenyl)-1H-[1,2,3]triazol-4-yl]-1H-quinolin-2-one] | 500 | –
CN1CCC(CNC(=O)c2ccc(-n3cc(-c4cc5ccccc5[nH]c4=O)nn3)cc2)CC1 [A15, N-(1-methyl-piperidin-4-ylmethyl)-4-[4-(2-oxo-1,2-dihydro-quinolin-3-yl)-[1,2,3]triazol-1-yl]-benzamide] | 47 | 49
COc1cnc2[nH]c(=O)c(-c3cn(-c4ccc(C(=O)N(C)C)cc4)nn3)cc2c1 [A16, 4-[4-(6-methoxy-2-oxo-1,2-dihydro-[1,8]naphthyridin-3-yl)-[1,2,3]triazol-1-yl]-N,N-dimethyl-benzamide] | 33 | –
COC(=O)c1cc(-n2cc(-c3cc4ccccc4[nH]c3=O)nn2)ccn1 [A17, 4-[4-(2-oxo-1,2-dihydro-quinolin-3-yl)-[1,2,3]triazol-1-yl]-pyridine-2-carboxylic acid methyl ester] | 67 | 290
O=C(NCCN1CCOCC1)c1ccc(-n2cc(-c3cc4ccccc4[nH]c3=O)nn2)cc1 [A21, N-(2-morpholin-4-yl-ethyl)-4-[4-(2-oxo-1,2-dihydro-quinolin-3-yl)-[1,2,3]triazol-1-yl]-benzamide] | 32 | 79
COC(=O)c1cccc(-n2cc(-c3cc4ccccc4[nH]c3=O)nn2)c1 [A23, 3-[4-(2-oxo-1,2-dihydro-quinolin-3-yl)-[1,2,3]triazol-1-yl]-benzoic acid methyl ester] | 250 | –
COc1cccc(-n2cc(-c3cc4ccccc4[nH]c3=O)nn2)c1 [A24, 3-[1-(3-methoxy-phenyl)-1H-[1,2,3]triazol-4-yl]-1H-quinolin-2-one] | 26 | 110
O=c1[nH]c2ccccc2cc1-c1cn(-c2ccccc2)nn1 [A27, 3-(1-phenyl-1H-[1,2,3]triazol-4-yl)-1H-quinolin-2-one] | 32 | 50
O=c1[nH]c2ccccc2cc1-c1cn(-c2ccc3nc[nH]c3c2)nn1 [A28, 3-[1-(3H-benzimidazol-5-yl)-1H-[1,2,3]triazol-4-yl]-1H-quinolin-2-one] | 29 | 36
Cc1ccc2cc(-c3cn(-c4ccc(C(=O)N5CCOCC5)cc4)nn3)c(=O)[nH]c2n1 [A30, 7-methyl-3-{1-[4-(morpholine-4-carbonyl)-phenyl]-1H-[1,2,3]triazol-4-yl}-1H-[1,8]naphthyridin-2-one] | 150 | 2200
O=C(c1ccc(-n2cc(-c3cc4ccccc4[nH]c3=O)cn2)cc1)N1CCNCC1 [A73, 3-{1-[4-(piperazine-1-carbonyl)-phenyl]-1H-pyrazol-4-yl}-1H-quinolin-2-one] | 440 | –

Further compounds by falling IC50 (PDGFRalpha(V561D)), results first:

IC50 (PDGFRalpha(V561D)) [nM] | IC50 (c-Kit(V654A)) [nM] | SMILES
26 | 220 | CN(C)C(=O)c1ccc(-n2cc(-c3cc4cc(Cl)cnc4[nH]c3=O)nn2)cc1 [A11, 4-[4-(6-chloro-2-oxo-1,2-dihydro-[1,8]naphthyridin-3-yl)-[1,2,3]triazol-1-yl]-N,N-dimethyl-benzamide]
23 | 150 | O=C(c1ccc(-n2cc(-c3cc4ccncc4[nH]c3=O)nn2)cc1)N1CCOCC1 [A29, 3-{1-[4-(morpholine-4-carbonyl)-phenyl]-1H-[1,2,3]triazol-4-yl}-1H-[1,7]naphthyridin-2-one]
20 | 23 | O=c1[nH]c2ccccc2cc1-c1cn(-c2ccc(OCCN3CCCC3)cc2)nn1 [A14, 3-{1-[4-(2-pyrrolidin-1-yl-ethoxy)-phenyl]-1H-[1,2,3]triazol-4-yl}-1H-quinolin-2-one]
19 | 34 | CN(C)C(=O)c1ccc(-n2cc(-c3cc4ccccc4[nH]c3=O)nn2)cc1 [A4, N,N-dimethyl-4-[4-(2-oxo-1,2-dihydro-quinolin-3-yl)-[1,2,3]triazol-1-yl]-benzamide]
16 | 53 | CN(C)C(=O)c1ccc(-n2cc(-c3cc4cccnc4[nH]c3=O)nn2)cc1 [A3, N,N-dimethyl-4-[4-(2-oxo-1,2-dihydro-[1,8]naphthyridin-3-yl)-[1,2,3]triazol-1-yl]-benzamide]
14 | 170 | O=C(NCCO)c1ccc(-n2cc(-c3cc4cccnc4[nH]c3=O)nn2)cc1 [A8, N-(2-hydroxy-ethyl)-4-[4-(2-oxo-1,2-dihydro-[1,8]naphthyridin-3-yl)-[1,2,3]triazol-1-yl]-benzamide]
14 | 38 | O=C(NCCO)c1ccc(-n2cc(-c3cc4ccccc4[nH]c3=O)nn2)cc1 [A19, N-(2-hydroxy-ethyl)-4-[4-(2-oxo-1,2-dihydro-quinolin-3-yl)-[1,2,3]triazol-1-yl]-benzamide]
13 | 99 | O=C(c1ccc(-n2cc(-c3cc4cc(F)cnc4[nH]c3=O)nn2)cc1)N1CCOCC1 [A31, 6-fluoro-3-{1-[4-(morpholine-4-carbonyl)-phenyl]-1H-[1,2,3]triazol-4-yl}-1H-[1,8]naphthyridin-2-one]
12 | 51 | O=C(c1ccc(-n2cc(-c3cc4ccccc4[nH]c3=O)nn2)cc1)N1CCOCC1 [A2, 3-{1-[4-(morpholine-4-carbonyl)-phenyl]-1H-[1,2,3]triazol-4-yl}-1H-quinolin-2-one]
10 | 15 | O=c1[nH]c2ccccc2cc1-c1cn(-c2ccc(OCCN3CCOCC3)cc2)nn1 [A26, 3-{1-[4-(2-morpholin-4-yl-ethoxy)-phenyl]-1H-[1,2,3]triazol-4-yl}-1H-quinolin-2-one]
6 | 27 | CN1CCC(CNC(=O)c2ccc(-n3cc(-c4cc5cc(F)ccc5[nH]c4=O)nn3)cc2)CC1 [A22, 4-[4-(6-fluoro-2-oxo-1,2-dihydro-quinolin-3-yl)-[1,2,3]triazol-1-yl]-N-(1-methyl-piperidin-4-ylmethyl)-benzamide]
5 | 15 | CN(C)C(=O)c1ccc(-n2cc(-c3cc4cc(F)ccc4[nH]c3=O)nn2)cc1 [A18, 4-[4-(6-fluoro-2-oxo-1,2-dihydro-quinolin-3-yl)-[1,2,3]triazol-1-yl]-N,N-dimethyl-benzamide]
3 | 15 | O=C1COCCN1c1ccc(-n2cc(-c3cc4ccccc4[nH]c3=O)nn2)cc1 [A25, 3-{1-[4-(3-oxo-morpholin-4-yl)-phenyl]-1H-[1,2,3]triazol-4-yl}-1H-quinolin-2-one]
2 | 6 | O=C(c1ccc(-n2cc(-c3cc4cc(F)ccc4[nH]c3=O)nn2)cc1)N1CCOCC1 [A1, 6-fluoro-3-{1-[4-(morpholine-4-carbonyl)-phenyl]-1H-[1,2,3]triazol-4-yl}-1H-quinolin-2-one]
